# Laboratory results: US20240383954A1, “PEPTIDE INHIBITORS OF INTERLEUKIN-23 RECEPTOR AND THEIR USE TO TREAT INFLAMMATORY DISEASES” (Janssen Biotech, Inc., priority 2020, published 2024)
# Structures can show the parent of a compound that is named as a salt. Positions of bridges follow the written chain, without caps; N, C: chain ends. Non-standard residues stand in square brackets, D forms with d. Residues, ends and D or L forms follow the SMILES beside them. *: point of attachment. Trp(7-Me) = Cc1cccc2c(C[C@H](N)C(=O)O)c[nH]c12; 2Nal = N[C@@H](Cc1ccc2ccccc2c1)C(=O)O; AEF = NCCOc1ccc(C[C@H](N)C(=O)O)cc1; αMeF = C[C@](N)(Cc1ccccc1)C(=O)O; Cit = NC(=O)NCCC[C@H](N)C(=O)O; αMeL = CC(C)C[C@](C)(N)C(=O)O; Pen = CC(C)(S)[C@H](N)C(=O)O; αMeK = C[C@](N)(CCCCN)C(=O)O; Ac5c = NC1(C(=O)O)CCCC1; Thp = NC1(C(=O)O)CCOCC1; Aib = CC(C)(N)C(=O)O; Propionyl = CCC(=O)*; Tfa = O=C(C(F)(F)F)*; X4 = C1CC(N*)CCN1
# Target: IL-23R (Homo sapiens, UniProt Q5VWK5)
# Test: cell-based
# Details: PBMC pSTAT3 IC50 (nM), PBMCs from healthy donors, IL-23 5 ng/mL, 30 minutes, phosphorylated STAT3
# 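Further: cryopreserved PBMCs stimulated at 37 °C in 5% CO2, then lysed, with phosphorylated STAT3 quantified in lysates using a phospho-STAT panel kit.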
# Sequence of IL-23R (Q5VWK5 24-629): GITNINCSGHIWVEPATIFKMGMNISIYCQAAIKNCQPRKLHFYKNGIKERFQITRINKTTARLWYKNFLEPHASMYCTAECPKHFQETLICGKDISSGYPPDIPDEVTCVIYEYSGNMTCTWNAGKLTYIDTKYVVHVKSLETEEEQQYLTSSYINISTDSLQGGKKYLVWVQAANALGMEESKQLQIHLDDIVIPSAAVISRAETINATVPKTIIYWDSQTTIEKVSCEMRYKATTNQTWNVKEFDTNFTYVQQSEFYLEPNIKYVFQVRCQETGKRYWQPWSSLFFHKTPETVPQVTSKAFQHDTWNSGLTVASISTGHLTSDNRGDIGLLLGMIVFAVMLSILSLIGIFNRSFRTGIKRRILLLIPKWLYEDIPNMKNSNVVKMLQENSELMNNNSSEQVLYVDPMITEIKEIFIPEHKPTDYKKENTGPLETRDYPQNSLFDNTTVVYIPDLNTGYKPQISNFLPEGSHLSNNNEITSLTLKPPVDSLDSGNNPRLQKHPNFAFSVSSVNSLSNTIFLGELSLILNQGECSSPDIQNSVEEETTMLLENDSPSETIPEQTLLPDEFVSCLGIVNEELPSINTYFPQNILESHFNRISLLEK
row,Compound,IC50
1,"CC(=O)N[C@H](CCCNC(=N)N)C(=O)N[C@H]1CCSC[C@@H](C(=O)N[C@@H](Cc2ccc(OCCN)cc2)C(=O)N[C@@H](Cc2ccc3ccccc3c2)C(=O)NC2(C(=O)N[C@@](C)(CCC(=O)O)C(=O)N[C@@H](CC(N)=O)C(=O)N[C@@](C)(Cc3ccc(F)cc3)C(N)=O)CCOCC2)NC(=O)[C@H](CCC(N)=O)NC(=O)[C@H](Cc2c[nH]c3ccccc23)NC(=O)[C@H]([C@@H](C)O)NC(=O)[C@H](CCC(N)=O)NC1=O [Compound 36, Ac-[(D)Arg]-[Abu]-Q-T-W-Q-[Cys]-Phe[4-(2-aminoethoxy)]-[2-Nal]-[THP]-[aMeGlu]-N-[aMe(4-F)Phe]-NH2]",14 nM
2,"CCC(=O)N[C@H](CCCNC(=N)N)C(=O)N[C@@H]1C(=O)N[C@@H](CCC(N)=O)C(=O)N[C@@H]([C@@H](C)O)C(=O)N[C@@H](Cc2c[nH]c3ccccc23)C(=O)N[C@@H](CCC(N)=O)C(=O)N[C@H](C(=O)N[C@@H](Cc2ccc(OCCN)cc2)C(=O)N[C@@H](Cc2ccc3ccccc3c2)C(=O)NC2(C(=O)N[C@@H](CCCCNC(=O)C(C)(C)C)C(=O)N[C@@H](CC(N)=O)C(=O)NC3(C(N)=O)CCOCC3)CCOCC2)C(C)(C)SSC1(C)C [Compound 7, [Propionic_acid]-[(D)Arg]-[Pen]-Q-T-W-Q-[Pen]-Phe[4-(2-aminoethoxy)]-[2-Nal]-[THP]-[Lys(COtBu)]-N-[THP]-NH2]",8.6 nM
3,"CC(=O)NCCCC[C@@H]1NC(=O)[C@H](Cc2c[nH]c3c(C)cccc23)NC(=O)[C@H]([C@@H](C)O)NC(=O)[C@H](CC(N)=O)NC(=O)[C@@H](NC(=O)[C@@H](CCCNC(=N)N)NC(C)=O)C(C)(C)SSC(C)(C)[C@@H](C(=O)N[C@@H](Cc2ccc(OCCN)cc2)C(=O)N[C@@H](Cc2ccc3ccccc3c2)C(=O)NC2(C(=O)N[C@@H](CCC(=O)O)C(=O)N[C@@H](CC(N)=O)C(=O)NC3(C(N)=O)CCOCC3)CCCC2)NC1=O [Compound 101, Ac-[(D)Arg]-[Pen]-N-T-[W(7-Me)]-[Lys(Ac)]-[Pen]-Phe[4-(2-aminoethoxy)]-[2-Nal]-[Acvc]-E-N-[THP]-NH2] (Ac-[dR][Pen]NT[Trp(7-Me)]K(Ac)[Pen][AEF][2Nal][Ac5c]EN[Thp]-NH2; disulfide 2-7)",0.74 nM
4,"CCC(=O)NCCCC[C@H](NC(=O)C1(NC(=O)[C@H](Cc2ccc3ccccc3c2)NC(=O)[C@H](Cc2ccc(OCCN)cc2)NC(=O)[C@H]2NC(=O)[C@H](CCC(N)=O)NC(=O)[C@H](Cc3c[nH]c4ccccc34)NC(=O)[C@H]([C@@H](C)O)NC(=O)[C@H](CCC(N)=O)NC(=O)[C@@H](NC(=O)[C@@H](CCCNC(=N)N)NC(C)=O)C(C)(C)SSC2(C)C)CCOCC1)C(=O)N[C@@H](CC(N)=O)C(=O)N[C@@H](Cc1ccccc1)C(N)=O [Compound 54, Ac-[(D)Arg]-[Pen]-Q-T-W-Q-[Pen]-Phe[4-(2-aminoethoxy)]-[2-Nal]-[THP]-[Lys(COEt)]-N-F-NH2] (Ac-[dR][Pen]QTWQ[Pen][AEF][2Nal][Thp]K(Propionyl)NF-NH2; disulfide 2-7)",47 nM
5,"CC(=O)NCCCC[C@H](NC(=O)[C@](C)(CCCCN)NC(=O)[C@H](Cc1ccc2ccccc2c1)NC(=O)[C@H](Cc1ccc(OCCN)cc1)NC(=O)[C@H]1NC(=O)[C@H](CCC(N)=O)NC(=O)[C@H](Cc2c[nH]c3c(C)cccc23)NC(=O)[C@H]([C@@H](C)O)NC(=O)[C@H](CC(N)=O)NC(=O)[C@@H](NC(C)=O)C(C)(C)SSC1(C)C)C(=O)N[C@@H](CC(N)=O)C(=O)NC1(C(N)=O)CCOCC1 [Compound 87, Ac-[Pen]-N-T-[W(7-Me)]-Q-[Pen]-Phe[4-(2-aminoethoxy)]-[2-Nal]-[a-MeLys]-[Lys(Ac)]-N-[THP]-NH2]",3.6 nM
6,"CC(=O)N[C@H](CCCNC(=N)N)C(=O)N[C@@H]1C(=O)N[C@@H](CCC(N)=O)C(=O)N[C@@H]([C@@H](C)O)C(=O)N[C@@H](Cc2c[nH]c3ccccc23)C(=O)N[C@@H](CCC(N)=O)C(=O)N[C@H](C(=O)N[C@@H](Cc2ccc(OCCN)cc2)C(=O)N[C@@H](Cc2ccc3ccccc3c2)C(=O)NC2(C(=O)N[C@@H](CCCCNC(=O)C(F)(F)F)C(=O)N[C@@H](CC(N)=O)C(=O)N[C@@H](Cc3ccccc3)C(N)=O)CCOCC2)C(C)(C)SSC1(C)C [Compound 60, Ac-[(D)Arg]-[Pen]-Q-T-W-Q-[Pen]-Phe[4-(2-aminoethoxy)]-[2-Nal]-[THP]-[Lys(COCF3)]-N-F-NH2] (Ac-[dR][Pen]QTWQ[Pen][AEF][2Nal][Thp]K(Tfa)NF-NH2; disulfide 2-7)",44 nM
7,"CC(=O)NCCCC[C@@H]1NC(=O)[C@H](Cc2c[nH]c3c(C)cccc23)NC(=O)[C@H]([C@@H](C)O)NC(=O)[C@H](CC(N)=O)NC(=O)[C@@H](NC(C)=O)C(C)(C)SSC(C)(C)[C@@H](C(=O)N[C@@H](Cc2ccc(OCCN)cc2)C(=O)N[C@@H](Cc2ccc3ccccc3c2)C(=O)NC2(C(=O)N[C@@H](CCCCNC(=O)C(F)(F)F)C(=O)N[C@@H](CC(N)=O)C(=O)NC3(C(N)=O)CCOCC3)CCOCC2)NC1=O [Compound 140, Ac-[Pen]-N-T-[W(7-Me)]-[Lys(Ac)]-[Pen]-Phe[4-(2-aminoethoxy)]-[2-Nal]-[THP]-[Lys(COCF3)]-N-[THP]-NH2]",2.6 nM
8,"CC(=O)NCCCC[C@@H]1NC(=O)[C@H](Cc2c[nH]c3c(C)cccc23)NC(=O)[C@H]([C@@H](C)O)NC(=O)[C@H](CC(N)=O)NC(=O)[C@@H](NC(C)=O)C(C)(C)SSC(C)(C)[C@@H](C(=O)N[C@@H](Cc2ccc(OCCN)cc2)C(=O)N[C@@H](Cc2ccc3ccccc3c2)C(=O)N[C@@](C)(CCCCN)C(=O)N[C@@H](CCCCNC(C)=O)C(=O)N[C@@H](CC(N)=O)C(=O)N[C@@](C)(Cc2ccc(O)cc2)C(N)=O)NC1=O [Compound 151, Ac-[Pen]-N-T-[W(7-Me)]-[Lys(Ac)]-[Pen]-Phe[4-(2-aminoethoxy)]-[2-Nal]-[a-MeLys]-[Lys(Ac)]-N-[aMeTyr]-NH2]",5.7 nM
9,"CC(=O)NCCCC[C@@H]1NC(=O)[C@H](Cc2c[nH]c3c(C)cccc23)NC(=O)[C@H]([C@@H](C)O)NC(=O)[C@H](CC(N)=O)NC(=O)[C@@H](NC(C)=O)CSSC[C@@](C)(C(=O)N[C@@H](Cc2ccc(OCCN)cc2)C(=O)N[C@@H](Cc2ccc3ccccc3c2)C(=O)N[C@@](C)(CCCCN)C(=O)N[C@@H](CCCCNC(C)=O)C(=O)N[C@@H](CC(N)=O)C(=O)N[C@@](C)(Cc2ccccc2)C(N)=O)NC1=O [Compound 118, Ac-[Cys]-N-T-[W(7-Me)]-[Lys(Ac)]-[aMeCys]-Phe[4-(2-aminoethoxy)]-[2-Nal]-[a-MeLys]-[Lys(Ac)]-N-[a-MePhe]-NH2]",30 nM
10,"CC(=O)N[C@H](CCCNC(=N)N)C(=O)N[C@@H]1C(=O)N[C@@H](CCC(N)=O)C(=O)N[C@@H]([C@@H](C)O)C(=O)N[C@@H](Cc2c[nH]c3ccccc23)C(=O)N[C@@H](CCC(N)=O)C(=O)N[C@H](C(=O)N[C@@H](Cc2ccc(OCCN)cc2)C(=O)N[C@@H](Cc2ccc3ccccc3c2)C(=O)NC2(C(=O)N[C@@H](CCC(=O)O)C(=O)N[C@@H](CC(N)=O)C(=O)N[C@@H](CC(=O)NC3CCNCC3)C(N)=O)CCOCC2)C(C)(C)SSC1(C)C [Compound 127, Ac-[(D)Arg]-[Pen]-Q-T-W-Q-[Pen]-Phe[4-(2-aminoethoxy)]-[2-Nal]-[THP]-E-N-[(N-Pip)Asn]-NH2] (Ac-[dR][Pen]QTWQ[Pen][AEF][2Nal][Thp]END(X4)-NH2; disulfide 2-7)",48 nM
11,"CC(=O)NCCCC[C@H](NC(=O)[C@](C)(CCCCN)NC(=O)[C@H](Cc1ccc2ccccc2c1)NC(=O)[C@H](Cc1ccc(OCCN)cc1)NC(=O)[C@H]1NC(=O)[C@H](CCCNC(N)=O)NC(=O)[C@H](Cc2c[nH]c3c(C)cccc23)NC(=O)[C@H]([C@@H](C)O)NC(=O)[C@H](CC(N)=O)NC(=O)[C@@H](NC(C)=O)C(C)(C)SSC1(C)C)C(=O)N[C@@H](CC(N)=O)C(=O)NC(C)(C)C(N)=O [Compound 302, MeCO-Pen-N-T-7MeW-Cit-Pen-AEF-2Nal-aMeK-K(Ac)-N-Aib-CONH2] (Ac-[Pen]NT[Trp(7-Me)][Cit][Pen][AEF][2Nal][αMeK]K(Ac)N[Aib]-NH2; disulfide 1-6)",7 nM
12,"CC(=O)NCCCC[C@H](NC(=O)[C@](C)(CC(C)C)NC(=O)[C@H](Cc1ccc2ccccc2c1)NC(=O)[C@H](Cc1ccc(OCCN)cc1)NC(=O)[C@H]1NC(=O)[C@H](CCCNC(N)=O)NC(=O)[C@H](Cc2c[nH]c3c(C)cccc23)NC(=O)[C@H]([C@@H](C)O)NC(=O)[C@H](CC(N)=O)NC(=O)[C@@H](NC(C)=O)C(C)(C)SSC1(C)C)C(=O)N[C@@H](CC(N)=O)C(=O)NC1(C(N)=O)CCOCC1 [Compound 108, Ac-[Pen]-N-T-[W(7-Me)]-[Cit]-[Pen]-Phe[4-(2-aminoethoxy)]-[2-Nal]-[aMeLeu]-[Lys(Ac)]-N-[THP]-NH2] (Ac-[Pen]NT[Trp(7-Me)][Cit][Pen][AEF][2Nal][αMeL]K(Ac)N[Thp]-NH2; disulfide 1-6)",5.1 nM
13,"CC(=O)NCCCC[C@H](NC(=O)C1(NC(=O)[C@H](Cc2ccc3ccccc3c2)NC(=O)[C@H](Cc2ccc(OCCN)cc2)NC(=O)[C@H]2NC(=O)[C@H](CCC(N)=O)NC(=O)[C@H](Cc3c[nH]c4ccccc34)NC(=O)[C@H]([C@@H](C)O)NC(=O)[C@H](CCC(N)=O)NC(=O)[C@@H](NC(=O)[C@@H](CCCNC(=N)N)NC(C)=O)C(C)(C)SSC2(C)C)CCOCC1)C(=O)N[C@@H](CC(N)=O)C(=O)N[C@@H](Cc1ccccc1)C(N)=O [Compound 53, Ac-[(D)Arg]-[Pen]-Q-T-W-Q-[Pen]-Phe[4-(2-aminoethoxy)]-[2-Nal]-[THP]-[Lys(Ac)]-N-F-NH2] (Ac-[dR][Pen]QTWQ[Pen][AEF][2Nal][Thp]K(Ac)NF-NH2; disulfide 2-7)",29 nM
14,"CC(=O)NCCCC[C@H](NC(=O)[C@](C)(CC(C)C)NC(=O)[C@H](Cc1ccc2ccccc2c1)NC(=O)[C@H](Cc1ccc(OCCN)cc1)NC(=O)[C@H]1NC(=O)[C@H](CCCNC(N)=O)NC(=O)[C@H](Cc2c[nH]c3c(C)cccc23)NC(=O)[C@H]([C@@H](C)O)NC(=O)[C@H](CC(N)=O)NC(=O)[C@@H](NC(C)=O)C(C)(C)SSC1(C)C)C(=O)N[C@@H](CC(N)=O)C(=O)N[C@@](C)(Cc1ccccc1)C(N)=O [Compound 104, Ac-[Pen]-N-T-[W(7-Me)]-[Cit]-[Pen]-Phe[4-(2-aminoethoxy)]-[2-Nal]-[aMeLeu]-[Lys(Ac)]-N-[a-MePhe]-NH2] (Ac-[Pen]NT[Trp(7-Me)][Cit][Pen][AEF][2Nal][αMeL]K(Ac)N[αMeF]-NH2; disulfide 1-6)",8.2 nM
